From EP3454861B1, “BENZOXAZINE OR QUINAZOLINE DERIVATIVES FOR USE IN THE TREATMENT OF ALZHEIMER'S DISEASE” (Biocodex, priority 2016, dated 2017)

Columns and labels:
neurones corticaux [1] = test: Survival of cortical neurons after Aβ1-42 intoxication (MAP-2 immunostaining); format: cell-based, rats; details: 1 h pre-incubation, Aβ1-42 10 µM, 24 h
Procedure: (§1) Des neurones corticaux de rats sont mis en culture comme dans la méthode décrite par Singer (1999) J. Neurosci. 19:2455-2463. Des rats femelles enceintes de 15 jours sont tuées par dislocation des cervicales (Rats Wistar, Janvier) et le fœtus est retiré de l'utérus. Les cortex sont prélevés et placés dans un milieu glacé de Leibovitz (L15, Panbiotech, Réf : P04-27055, lot : 9310614) contenant 2% de pénicilline (10 000 U/ml) et de streptomycine (10 mg/ml) (PS, Panbiotec, Réf : P06-07100, lot : 48101114) et 1% de sérum-albumine bovine (BSA, Panbiotech, Réf : P06-1391100, lot : H140603). Les cortex sont dissociés par trypsination (0,05% Panbiotech, Réf : P10-023100, lot : 5890314) pendant 20 minutes à 37°C. La réaction est stoppée par addition d'un milieu Eagle modifié de Dulbecco (DMEM, Panbiotech, réf P04-03600, lot : 9670913) contenant de la DNase I grade Il (0,1 mg/ml Panbiotech, Réf : P60-37780100, lot : H140508) et 10 % de sérum de veau fœtal (FCS, Invitrogen, Réf : 10270 à 098, lot : 41Q4120K). Les cellules sont dissociées mécaniquement par 3 passages à travers une pipette de 10 ml. Les cellules sont ensuite centrifugées à 515 g pendant 10 minutes à 4°C. […]

neurones corticaux [2] = test: Oxidative stress (MetO-positive neurons) in cortical neurons after Aβ1-42; format: cell-based, rats; details: Rattus norvegicus, Cortical neurone, Aβ1-42 1,25 µM, 4 h (Aβ1-42 alone 136.98%), read-out: nombre de neurones positifs à MetO
Procedure: as §1

Compound: CCNC1=Nc2ccc(Cl)cc2C(C)(c2ccccc2)O1 (stereo not shown) [Etifoxine, chlorhydratede 6-chloro-2-éthylamino-4-méthyl-4-phényl-4H-[3,1]benzoxazine]
- survie des neurones (neurones corticaux [1]; étifoxine 3 µM, p <0,05): restaure de manière significative la survie des neurones
- survie des neurones (neurones corticaux [1]; étifoxine 10 µM, p <0,01): restaure de manière significative la survie des neurones
- activity at 3 µM (neurones corticaux [2]; étifoxine 3 µM): 108%
- activity at 10 µM (neurones corticaux [2]; étifoxine 10 µM): 103%
